The text below walks through data of publication PMC3865070 (Neuropharmacology, 2013).

What all share (assay type): cell-based
The target in experiment [1] is GluN1(F484A/T518L)/N3A (Rattus norvegicus, UniProt Q9R1M7). Nature of the experiment: Two-electrode voltage-clamp recordings, Xenopus oocytes expressing GluN1. Particulars: for voltage dependence of inhibition: current-voltage relationship, inhibition at −60 mV and +30 mV; for Hill coefficient (nH): inhibition.
Experiment [2] concerns the target GluK2 (Rattus norvegicus, UniProt P42260). The experiment is described as follows: Two-electrode voltage-clamp recordings, Xenopus oocytes expressing GluK2.
In experiment [3] the target is GluA1 (Rattus norvegicus, UniProt P19490). Nature of the experiment: Two-electrode voltage-clamp recordings, Xenopus oocytes expressing GluA1.
Sequence of GluA1 (P19490 19-907): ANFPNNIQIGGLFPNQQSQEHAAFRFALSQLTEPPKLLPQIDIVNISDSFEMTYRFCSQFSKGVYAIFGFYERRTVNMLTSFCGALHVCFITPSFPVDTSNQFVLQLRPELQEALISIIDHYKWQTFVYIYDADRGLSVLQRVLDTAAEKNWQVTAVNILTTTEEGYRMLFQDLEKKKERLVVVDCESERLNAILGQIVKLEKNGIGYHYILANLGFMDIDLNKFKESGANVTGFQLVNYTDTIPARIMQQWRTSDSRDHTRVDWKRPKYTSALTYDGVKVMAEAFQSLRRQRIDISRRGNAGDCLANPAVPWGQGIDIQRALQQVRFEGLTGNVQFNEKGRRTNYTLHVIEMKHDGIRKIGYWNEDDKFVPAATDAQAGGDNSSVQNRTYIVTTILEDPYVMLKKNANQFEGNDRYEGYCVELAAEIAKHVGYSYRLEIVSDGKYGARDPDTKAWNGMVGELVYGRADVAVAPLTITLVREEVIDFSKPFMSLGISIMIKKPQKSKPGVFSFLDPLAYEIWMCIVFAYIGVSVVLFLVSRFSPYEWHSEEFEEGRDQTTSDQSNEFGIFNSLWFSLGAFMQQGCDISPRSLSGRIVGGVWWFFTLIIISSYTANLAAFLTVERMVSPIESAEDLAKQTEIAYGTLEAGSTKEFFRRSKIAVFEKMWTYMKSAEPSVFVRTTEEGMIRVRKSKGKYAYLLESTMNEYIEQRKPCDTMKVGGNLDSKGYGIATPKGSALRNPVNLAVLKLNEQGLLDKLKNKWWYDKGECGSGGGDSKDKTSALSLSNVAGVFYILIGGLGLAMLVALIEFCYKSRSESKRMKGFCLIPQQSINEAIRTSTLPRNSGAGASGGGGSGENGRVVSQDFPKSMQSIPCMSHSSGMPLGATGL
Experiment [4] concerns the target GluN1/N2A (Rattus norvegicus, UniProt P35439+Q00959). Nature of the experiment: Two-electrode voltage-clamp recordings, Xenopus oocytes expressing GluN1/N2A.
The target in experiment [5] is wild-type GluN1/N3B receptors (Rattus norvegicus, UniProt P35439+Q8VHN2).
Sequence of wild-type GluN1/N3B receptors (Q8VHN2 25-1002, other chains not shown): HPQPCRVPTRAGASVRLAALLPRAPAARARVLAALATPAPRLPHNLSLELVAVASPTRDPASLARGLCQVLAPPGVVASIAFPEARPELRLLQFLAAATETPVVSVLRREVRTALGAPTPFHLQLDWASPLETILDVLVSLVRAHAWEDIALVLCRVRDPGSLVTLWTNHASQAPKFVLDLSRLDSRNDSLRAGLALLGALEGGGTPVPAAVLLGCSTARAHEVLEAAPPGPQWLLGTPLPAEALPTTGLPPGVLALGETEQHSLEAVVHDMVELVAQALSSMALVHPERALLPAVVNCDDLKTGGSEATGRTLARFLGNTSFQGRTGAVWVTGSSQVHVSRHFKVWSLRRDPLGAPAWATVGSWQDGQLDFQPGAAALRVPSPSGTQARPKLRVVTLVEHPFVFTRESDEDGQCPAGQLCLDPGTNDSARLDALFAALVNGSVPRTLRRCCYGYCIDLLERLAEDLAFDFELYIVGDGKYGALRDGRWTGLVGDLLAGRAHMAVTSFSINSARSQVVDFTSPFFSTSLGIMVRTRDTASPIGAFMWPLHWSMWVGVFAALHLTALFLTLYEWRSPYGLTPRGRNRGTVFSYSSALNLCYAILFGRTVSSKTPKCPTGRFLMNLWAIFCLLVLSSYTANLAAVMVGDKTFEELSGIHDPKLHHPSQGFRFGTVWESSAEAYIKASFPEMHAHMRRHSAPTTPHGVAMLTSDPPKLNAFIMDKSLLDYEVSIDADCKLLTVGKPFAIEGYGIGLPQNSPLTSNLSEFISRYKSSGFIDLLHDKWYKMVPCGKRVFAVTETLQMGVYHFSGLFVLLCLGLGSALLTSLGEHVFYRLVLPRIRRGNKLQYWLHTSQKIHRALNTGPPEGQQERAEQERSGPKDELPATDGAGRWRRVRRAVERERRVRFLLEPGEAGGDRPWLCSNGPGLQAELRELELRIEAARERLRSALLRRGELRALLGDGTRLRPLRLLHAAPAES
The target of experiment [6] is GluN1/N2D (Rattus norvegicus, UniProt P35439+Q62645). The experiment is described as follows: Two-electrode voltage-clamp recordings, Xenopus oocytes expressing GluN1/N2D.
Experiment [7] has as its target GluN1/N2B (Rattus norvegicus, UniProt P35439+Q00960). The experiment is described as follows: Two-electrode voltage-clamp recordings, Xenopus oocytes expressing GluN1/N2B.
The target of experiment [8] is GluN1/N2C (Rattus norvegicus, UniProt P35439+Q00961). Nature of the experiment: Two-electrode voltage-clamp recordings, Xenopus oocytes expressing GluN1/N2C.
Experiment [9] has as its target GluN1(F484A/T518L)/N3B (Rattus norvegicus, UniProt Q8VHN2). Nature of the experiment: Two-electrode voltage-clamp recordings, Xenopus oocytes expressing GluN1. Particulars: for Hill coefficient (nH): inhibition.
Experiment [10] deals with GluN1(F484A)/N3A (Rattus norvegicus, UniProt P35439+Q9R1M7, F484A). The description is as above. Particulars: for Hill coefficient (nH): inhibition.
Sequence of GluN1(F484A)/N3A (Q9R1M7 24-1115 isoform Q9R1M7-2 limits assumed, stated change not applied, other chains not shown): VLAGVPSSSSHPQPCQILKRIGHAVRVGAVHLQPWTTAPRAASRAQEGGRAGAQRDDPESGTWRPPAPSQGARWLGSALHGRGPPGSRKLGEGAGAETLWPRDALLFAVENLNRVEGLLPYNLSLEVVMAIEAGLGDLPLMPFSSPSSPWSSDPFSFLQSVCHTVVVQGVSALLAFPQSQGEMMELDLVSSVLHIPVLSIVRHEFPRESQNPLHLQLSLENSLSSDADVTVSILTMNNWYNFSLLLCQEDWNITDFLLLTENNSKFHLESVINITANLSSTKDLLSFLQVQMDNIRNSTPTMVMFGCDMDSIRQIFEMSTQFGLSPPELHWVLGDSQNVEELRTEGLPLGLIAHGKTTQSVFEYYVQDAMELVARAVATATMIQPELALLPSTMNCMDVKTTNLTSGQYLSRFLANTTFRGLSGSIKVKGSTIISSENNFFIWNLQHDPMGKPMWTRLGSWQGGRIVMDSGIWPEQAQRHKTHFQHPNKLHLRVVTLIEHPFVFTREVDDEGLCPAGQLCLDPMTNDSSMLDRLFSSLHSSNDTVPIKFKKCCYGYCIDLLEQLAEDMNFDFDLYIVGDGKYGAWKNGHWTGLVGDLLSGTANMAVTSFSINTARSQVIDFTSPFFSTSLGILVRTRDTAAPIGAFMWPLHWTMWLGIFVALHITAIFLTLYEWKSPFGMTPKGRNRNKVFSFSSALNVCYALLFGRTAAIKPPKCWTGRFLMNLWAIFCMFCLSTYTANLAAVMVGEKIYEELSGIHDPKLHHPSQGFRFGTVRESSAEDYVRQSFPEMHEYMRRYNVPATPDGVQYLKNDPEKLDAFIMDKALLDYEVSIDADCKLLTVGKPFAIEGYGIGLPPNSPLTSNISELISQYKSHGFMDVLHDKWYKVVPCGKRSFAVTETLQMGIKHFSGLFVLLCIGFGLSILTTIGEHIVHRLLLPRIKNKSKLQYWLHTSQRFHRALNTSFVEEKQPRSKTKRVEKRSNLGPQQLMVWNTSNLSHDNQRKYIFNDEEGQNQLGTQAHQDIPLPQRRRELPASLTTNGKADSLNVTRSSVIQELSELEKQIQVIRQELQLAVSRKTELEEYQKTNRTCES
Experiment [11] concerns the target GluN1/N2A (Rattus norvegicus, UniProt P35439). The experiment is described as follows: Two-electrode voltage-clamp recordings, Xenopus oocytes expressing GluN1/N2A. Conditions: co-applied with 100 μM glutamate and 0.5 μM glycine.
For experiment [12], the target named is GluN1(T518L)/N3A (Rattus norvegicus, UniProt P35439+Q9R1M7, T518L). Nature of the experiment: Two-electrode voltage-clamp recordings, Xenopus oocytes expressing GluN1. Particulars: for Hill coefficient (nH): inhibition.
Sequence of GluN1(T518L)/N3A (Q9R1M7 24-1115 isoform Q9R1M7-2 limits assumed, stated change not applied, other chains not shown): as above
Experiment [13] has as its target GluN1/N2D (Rattus norvegicus, UniProt P35439). The experiment is described as follows: Two-electrode voltage-clamp recordings, Xenopus oocytes expressing GluN1/N2D. Particulars: co-applied with 100 μM glutamate and 0.5 μM glycine.
Experiment [14] concerns the target GluN1/N2C (Rattus norvegicus, UniProt P35439). The experiment is described as follows: Two-electrode voltage-clamp recordings, Xenopus oocytes expressing GluN1/N2C. Particulars: co-applied with 100 μM glutamate and 0.5 μM glycine.
For experiment [15], the target named is GluN1/N2B (Rattus norvegicus, UniProt P35439). The experiment is described as follows: Two-electrode voltage-clamp recordings, Xenopus oocytes expressing GluN1/N2B. Conditions: co-applied with 100 μM glutamate and 0.5 μM glycine.
The mark [16] stands for this setting: IC50, co-applied with 100 μM glycine, N.E., no significant effect at 300 μM.
The mark [17] stands for this setting: co-applied with 100 μM glycine, N.E., no significant effect at 300 μM.
[18] abbreviates: read-out: inhibition of current responses to 10 μM glycine.
Setting [19] is: IC50, co-applied with 100 μM glutamate and 0.5 μM glycine.

Like-named read-outs stand apart in the source and are kept apart here. Where only a bound is given, the exact number is not on record here.

Sequence of GluN1(F484A/T518L)/N3A (Q9R1M7 24-1115 isoform Q9R1M7-2, other chains not shown): as the sequence (Q9R1M7 24-1115 isoform Q9R1M7-2 limits assumed, stated change not applied, other chains not shown) above
Sequence of GluN1(F484A/T518L)/N3B (Q8VHN2 25-1002, stated change not applied, other chains not shown): as the sequence (Q8VHN2 25-1002, other chains not shown) above
Sequence of GluK2 (P42260 32-908): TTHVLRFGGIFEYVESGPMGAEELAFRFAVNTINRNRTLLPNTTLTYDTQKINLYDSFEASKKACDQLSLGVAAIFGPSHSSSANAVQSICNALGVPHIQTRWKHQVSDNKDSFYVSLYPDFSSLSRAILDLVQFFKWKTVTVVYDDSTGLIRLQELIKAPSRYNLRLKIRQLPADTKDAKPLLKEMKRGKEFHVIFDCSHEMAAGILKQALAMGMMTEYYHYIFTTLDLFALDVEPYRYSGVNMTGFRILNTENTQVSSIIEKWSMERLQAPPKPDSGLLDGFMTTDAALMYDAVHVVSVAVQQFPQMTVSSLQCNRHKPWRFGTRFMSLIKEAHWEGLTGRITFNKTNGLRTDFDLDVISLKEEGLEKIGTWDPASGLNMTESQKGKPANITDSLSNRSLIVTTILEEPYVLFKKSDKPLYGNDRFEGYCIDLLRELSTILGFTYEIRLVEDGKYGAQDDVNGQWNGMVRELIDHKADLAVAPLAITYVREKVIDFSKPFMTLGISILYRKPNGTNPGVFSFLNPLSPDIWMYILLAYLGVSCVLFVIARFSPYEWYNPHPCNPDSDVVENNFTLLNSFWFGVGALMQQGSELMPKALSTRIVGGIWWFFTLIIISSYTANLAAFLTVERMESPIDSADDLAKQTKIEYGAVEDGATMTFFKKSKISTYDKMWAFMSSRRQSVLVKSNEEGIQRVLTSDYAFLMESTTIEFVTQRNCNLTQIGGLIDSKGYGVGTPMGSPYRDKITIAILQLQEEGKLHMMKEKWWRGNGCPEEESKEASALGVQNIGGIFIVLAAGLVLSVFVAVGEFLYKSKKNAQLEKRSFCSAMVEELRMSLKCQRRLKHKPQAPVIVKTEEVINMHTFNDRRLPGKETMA

Turning to `O=c1[nH]c2nonc2nc1O` [TK80, 6-hydroxy-[1,2,5]oxadiazolo[3,4-b]pyrazin-5(4H)-one], the IC50 in experiment [1] (setting [16]) is above 300 µM; in experiment [1] (setting [17]), “N.E”; in [2], above 300 µM; in experiment [3], above 300 µM; in experiment [4], above 300 µM; in experiment [6] (setting [19]) it was above 300 µM. Besides, the IC50 was above 300 µM in experiment [7], above 300 µM in experiment [8] and 79 µM in experiment [9]. Moreover, the Ki in [4] was above 290 µM; in experiment [6] it was above 210 µM; in experiment [7], above 260 µM; in experiment [8], above 260 µM; in [9], 39 µM. Moreover, in experiment [5] (setting [18]), the inhibition at 100 µM stood at 65 ± 4.3%. Further, the “voltage dependence of inhibition” value in experiment [9] (current-voltage relationship, inhibition at −60 mV and +30 mV) is reported as “voltage-independent”. Besides, in [9] (co-applied with 100 μM glycine), the “Hill coefficient (nH)” value is given as −1.79.
Turning to `O=C(O)c1cc(C(=O)c2ccc(Cl)cc2Cl)c[nH]1` [TK30, 4-(2,4-dichlorobenzoyl)-1H-pyrrole-2-carboxylic acid], the IC50 in experiment [1] (setting [16]) was 14 µM; in experiment [1] (pIC50 ± S.E.M., co-applied with 100 μM glycine), 15.8 µM; in experiment [10], 34 µM; in experiment [4], 270 µM; in experiment [12], 9.8 µM; in [6] (setting [19]) it was 90 µM. Moreover, the IC50 is 79.4 µM in experiment [6] (pIC50 ± S.E.M., co-applied with 100 μM glutamate and 0.5 μM glycine); above 300 µM in experiment [7]; 120 µM in experiment [8]; 7.4 µM in experiment [9]. In addition, in [1], the “voltage dependence of inhibition” value is “voltage-independent”. Also, the “Hill coefficient (nH)” value in [1] (co-applied with 100 μM glycine) was −1.44; in experiment [10] (co-applied with 100 μM glycine), −1.16; in experiment [11] (inhibition), −1.39; in experiment [12] (co-applied with 50 μM glycine), −1.50; in [13] (inhibition) it was −1.83; in experiment [14] (inhibition) it was −1.77. Moreover, the “Hill coefficient (nH)” value in [9] (co-applied with 100 μM glycine) is −1.37. Besides, the Maximal inhibition in experiment [10] (co-applied with 100 μM glycine) and in experiment [12] (co-applied with 50 μM glycine) was 100% in each case. Also, in experiment [5] (setting [18]), the inhibition at 30 µM came to 70 ± 4%.
Take `O=C(O)c1cc(Nc2nc(-c3cccnc3)cs2)ccc1O` [TK13]: the “pIC50 ± S.E.M.” value in [1] (co-applied with 100 μM glycine) is 4.2 ± 0.06; in experiment [10] (co-applied with 100 μM glycine) it was 4.0 ± 0.03; in experiment [12] (co-applied with 50 μM glycine) it was 4.0 ± 0.05; in experiment [9] (co-applied with 100 μM glycine), 4.3 ± 0.03. The IC50 in experiment [1] (setting [17]) is 67 µM; in experiment [2] (co-applied with 30 μM glutamate, oocytes incubated 5 min in 10 μM concanavalin A), above 300 µM; in [10] (co-applied with 100 μM glycine), 93 µM; in [3] (co-applied with 30 μM glutamate) it was above 300 µM; in experiment [11] it was above 300 µM; in [12] (co-applied with 50 μM glycine), 100 µM. Further, the IC50 in [13] is above 300 µM; in experiment [15] it was above 300 µM; in [14], above 300 µM; in [9] (co-applied with 100 μM glycine), 49 µM. Also, the “voltage dependence of inhibition” value in experiment [1] was “voltage-independent”. Moreover, the “Hill coefficient (nH)” value in experiment [1] (co-applied with 100 μM glycine) is given as −1.04; in experiment [10] (co-applied with 100 μM glycine) it was −1.04; in [12] (co-applied with 50 μM glycine) it was −1.02; in experiment [9] (co-applied with 100 μM glycine), −0.77. The Maximal inhibition in experiment [10] (co-applied with 100 μM glycine) and in [12] (co-applied with 50 μM glycine) was 100% each time. Besides, the “inhibition of current responses to 10 μM glycine” value in experiment [5] (100 μM compound) was determined as 55 ± 3.1%.
